Assay [1] in a line: Translatory activity was evaluated as ratio of Ki and IC90 *10e-5. It counts as functional.
The target in assay [2] is Human immunodeficiency virus type 1 protease (Human immunodeficiency virus 1, UniProt Q72874). In words: Binding affinity for HIV protease.
Assay [3] has as its system Human immunodeficiency virus 1. The assay can be described thus: Inhibitory activity was determined by measuring accumulation of viral RNA transcript after infection of cells with HIV-1. In kind it is functional.

Where only a bound is given, the exact number is not on record here.

As usually defined, the Ki is the dissociation constant of the complex between target and ligand, obtained from inhibition or displacement. A higher Ki goes with weaker binding. Usually IC90 stands for the concentration at which the effect reaches the 90% level. The low end stands for an effect from little substance, the high end for a need for much substance.

Consider `CC(C)c1ccc(C[C@@H]2[C@H](O)[C@@H](O)[C@@H](Cc3ccc(C(C)C)cc3)N(Cc3ccc4[nH]nc(N)c4c3)C(=O)N2Cc2ccc3[nH]nc(N)c3c2)cc1`, for which the Translation in assay [1] amounted to 46. Moreover, the Ki in assay [2] came out at 0.19 nM. In assay [3], this compound returned an IC90 of 410 nM.

As to `Cc1cccc(C[C@@H]2[C@H](O)[C@@H](O)[C@@H](Cc3cccc(C)c3)N(Cc3ccc4[nH]nc(N)c4c3)C(=O)N2Cc2ccc3[nH]nc(N)c3c2)c1`, the Translation in assay [1] was determined as 1.5. The compound also registered a Ki in assay [2] of 0.011 nM. In assay [3], this compound showed an IC90 of 740 nM.

As to `CC(C)(C)c1ccc(C[C@@H]2[C@H](O)[C@@H](O)[C@@H](Cc3ccc(C(C)(C)C)cc3)N(Cc3ccc4[nH]nc(N)c4c3)C(=O)N2Cc2ccc3[nH]nc(N)c3c2)cc1`, the Translation in assay [1] turned out to be 190. Also, the inhibition constant Ki in assay [2] came to 0.19 nM. Besides, in assay [3], it took 100 nM to reach the 90% level (IC90).

For the compound `Cc1ccc(C)c(C[C@@H]2[C@H](O)[C@@H](O)[C@@H](Cc3cc(C)ccc3C)N(Cc3ccc4[nH]nc(N)c4c3)C(=O)N2Cc2ccc3[nH]nc(N)c3c2)c1`, in assay [1], the Translation stood at 11. This compound also returned a Ki in assay [2] of 0.034 nM. For the same compound, the IC90 in assay [3] turned out to be 300 nM.

For `Cc1cc(C)cc(C[C@@H]2[C@H](O)[C@@H](O)[C@@H](Cc3cc(C)cc(C)c3)N(Cc3ccc4[nH]nc(N)c4c3)C(=O)N2Cc2ccc3[nH]nc(N)c3c2)c1`, the Translation in assay [1] is 12. In assay [2], this compound displayed a Ki of 0.067 nM. Besides, in assay [3], the IC90 came out at 540 nM.

`Cc1ccc(C[C@@H]2[C@H](O)[C@@H](O)[C@@H](Cc3ccc(C)cc3)N(Cc3ccc4[nH]nc(N)c4c3)C(=O)N2Cc2ccc3[nH]nc(N)c3c2)cc1`: the Translation in assay [1] stood at 8. The compound further gave a Ki in assay [2] of 0.061 nM. In addition, the IC90 in assay [3] came out at 780 nM.

Turning to `CCCc1ccc(C[C@@H]2[C@H](O)[C@@H](O)[C@@H](Cc3ccc(CCC)cc3)N(Cc3ccc4[nH]nc(N)c4c3)C(=O)N2Cc2ccc3[nH]nc(N)c3c2)cc1`, the Translation in assay [1] amounted to 23. Affinity in assay [2] was put at a Ki of 0.068 nM. This compound also yielded an IC90 in assay [3] of 290 nM.

As to `Nc1[nH]nc2ccc(CN3C(=O)N(Cc4ccc5n[nH]c(N)c5c4)[C@H](Cc4ccccc4)[C@H](O)[C@@H](O)[C@H]3Cc3ccccc3)cc12`, in assay [1], the Translation is < 0.36. The 90% effect level in assay [3] (IC90) was put at 2760 nM.

As to `CCCCc1ccc(C[C@@H]2[C@H](O)[C@@H](O)[C@@H](Cc3ccc(CCCC)cc3)N(Cc3ccc4[nH]nc(N)c4c3)C(=O)N2Cc2ccc3[nH]nc(N)c3c2)cc1`, in assay [1], the Translation was determined as 94. The Ki in assay [2] came out at 0.17 nM. The compound also came in with an IC90 in assay [3] of 180 nM.

For `CC(C)(C)c1cccc(C[C@@H]2[C@H](O)[C@@H](O)[C@@H](Cc3cccc(C(C)(C)C)c3)N(Cc3ccc4[nH]nc(N)c4c3)C(=O)N2Cc2ccc3[nH]nc(N)c3c2)c1`, the Translation in assay [1] came to 54. This compound came in with a Ki in assay [2] of 0.21 nM. Also, the IC90 in assay [3] stood at 390 nM.

Turning to `CCc1ccc(C[C@@H]2[C@H](O)[C@@H](O)[C@@H](Cc3ccc(CC)cc3)N(Cc3ccc4[nH]nc(N)c4c3)C(=O)N2Cc2ccc3[nH]nc(N)c3c2)cc1`, the Translation in assay [1] was determined as 23. In assay [2], this compound displayed a Ki of 0.068 nM. For the same compound, the IC90 in assay [3] was 300 nM.

For the compound `Nc1n[nH]c2ccc(CN3C(=O)N(Cc4ccc5[nH]nc(N)c5c4)[C@H](Cc4ccccc4)[C@H](O)[C@@H](O)[C@H]3Cc3ccccc3)cc12`, in assay [2], the Ki is < 0.01 nM.

Values taken from ChEMBL document CHEMBL1132498, “Increased antiviral activity of cyclic urea HIV protease inhibitors by modifying the P1/P1' substituents” (Bioorg Med Chem Lett, 1999).
